# Literature values, collected in US20240066021A1, “METHODS FOR OPTIMIZING CFTR-MODULATOR THERAPY” (Children's Hospital Medical Center, priority 2021, published 2024).
# Assays:
# [1] = target: T1, UFO (Homo sapiens, UniProt P30530); details: Target UFO, Gene Symbol AXL
# T1 sequence (P30530 26-894): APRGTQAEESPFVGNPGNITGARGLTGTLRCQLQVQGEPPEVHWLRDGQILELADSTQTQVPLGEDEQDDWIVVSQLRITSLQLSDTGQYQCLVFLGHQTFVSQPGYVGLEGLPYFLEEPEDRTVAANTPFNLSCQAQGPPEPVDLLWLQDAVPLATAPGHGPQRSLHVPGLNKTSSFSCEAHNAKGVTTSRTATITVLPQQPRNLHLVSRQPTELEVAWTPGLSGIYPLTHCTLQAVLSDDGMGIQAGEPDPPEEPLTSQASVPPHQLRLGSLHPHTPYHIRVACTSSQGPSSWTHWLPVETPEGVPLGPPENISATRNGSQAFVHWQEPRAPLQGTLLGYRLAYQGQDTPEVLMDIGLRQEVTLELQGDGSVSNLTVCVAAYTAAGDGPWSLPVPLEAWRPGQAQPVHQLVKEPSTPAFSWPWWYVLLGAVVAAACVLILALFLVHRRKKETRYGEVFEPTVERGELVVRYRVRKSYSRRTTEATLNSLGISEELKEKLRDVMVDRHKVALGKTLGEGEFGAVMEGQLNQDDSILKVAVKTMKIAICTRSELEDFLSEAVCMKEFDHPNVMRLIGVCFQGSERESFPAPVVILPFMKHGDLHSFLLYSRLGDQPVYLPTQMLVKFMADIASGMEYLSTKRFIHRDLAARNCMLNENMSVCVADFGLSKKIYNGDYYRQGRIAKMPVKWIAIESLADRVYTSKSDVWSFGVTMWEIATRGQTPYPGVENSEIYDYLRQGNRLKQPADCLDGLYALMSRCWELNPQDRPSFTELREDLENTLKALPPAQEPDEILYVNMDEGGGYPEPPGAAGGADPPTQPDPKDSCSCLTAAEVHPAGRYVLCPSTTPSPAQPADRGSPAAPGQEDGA
# [2] = target: CENP-E (Homo sapiens, UniProt Q02224); details: Target CENP-E, Gene Symbol CENPE
# CENP-E, sequence (Q02224 whole entry): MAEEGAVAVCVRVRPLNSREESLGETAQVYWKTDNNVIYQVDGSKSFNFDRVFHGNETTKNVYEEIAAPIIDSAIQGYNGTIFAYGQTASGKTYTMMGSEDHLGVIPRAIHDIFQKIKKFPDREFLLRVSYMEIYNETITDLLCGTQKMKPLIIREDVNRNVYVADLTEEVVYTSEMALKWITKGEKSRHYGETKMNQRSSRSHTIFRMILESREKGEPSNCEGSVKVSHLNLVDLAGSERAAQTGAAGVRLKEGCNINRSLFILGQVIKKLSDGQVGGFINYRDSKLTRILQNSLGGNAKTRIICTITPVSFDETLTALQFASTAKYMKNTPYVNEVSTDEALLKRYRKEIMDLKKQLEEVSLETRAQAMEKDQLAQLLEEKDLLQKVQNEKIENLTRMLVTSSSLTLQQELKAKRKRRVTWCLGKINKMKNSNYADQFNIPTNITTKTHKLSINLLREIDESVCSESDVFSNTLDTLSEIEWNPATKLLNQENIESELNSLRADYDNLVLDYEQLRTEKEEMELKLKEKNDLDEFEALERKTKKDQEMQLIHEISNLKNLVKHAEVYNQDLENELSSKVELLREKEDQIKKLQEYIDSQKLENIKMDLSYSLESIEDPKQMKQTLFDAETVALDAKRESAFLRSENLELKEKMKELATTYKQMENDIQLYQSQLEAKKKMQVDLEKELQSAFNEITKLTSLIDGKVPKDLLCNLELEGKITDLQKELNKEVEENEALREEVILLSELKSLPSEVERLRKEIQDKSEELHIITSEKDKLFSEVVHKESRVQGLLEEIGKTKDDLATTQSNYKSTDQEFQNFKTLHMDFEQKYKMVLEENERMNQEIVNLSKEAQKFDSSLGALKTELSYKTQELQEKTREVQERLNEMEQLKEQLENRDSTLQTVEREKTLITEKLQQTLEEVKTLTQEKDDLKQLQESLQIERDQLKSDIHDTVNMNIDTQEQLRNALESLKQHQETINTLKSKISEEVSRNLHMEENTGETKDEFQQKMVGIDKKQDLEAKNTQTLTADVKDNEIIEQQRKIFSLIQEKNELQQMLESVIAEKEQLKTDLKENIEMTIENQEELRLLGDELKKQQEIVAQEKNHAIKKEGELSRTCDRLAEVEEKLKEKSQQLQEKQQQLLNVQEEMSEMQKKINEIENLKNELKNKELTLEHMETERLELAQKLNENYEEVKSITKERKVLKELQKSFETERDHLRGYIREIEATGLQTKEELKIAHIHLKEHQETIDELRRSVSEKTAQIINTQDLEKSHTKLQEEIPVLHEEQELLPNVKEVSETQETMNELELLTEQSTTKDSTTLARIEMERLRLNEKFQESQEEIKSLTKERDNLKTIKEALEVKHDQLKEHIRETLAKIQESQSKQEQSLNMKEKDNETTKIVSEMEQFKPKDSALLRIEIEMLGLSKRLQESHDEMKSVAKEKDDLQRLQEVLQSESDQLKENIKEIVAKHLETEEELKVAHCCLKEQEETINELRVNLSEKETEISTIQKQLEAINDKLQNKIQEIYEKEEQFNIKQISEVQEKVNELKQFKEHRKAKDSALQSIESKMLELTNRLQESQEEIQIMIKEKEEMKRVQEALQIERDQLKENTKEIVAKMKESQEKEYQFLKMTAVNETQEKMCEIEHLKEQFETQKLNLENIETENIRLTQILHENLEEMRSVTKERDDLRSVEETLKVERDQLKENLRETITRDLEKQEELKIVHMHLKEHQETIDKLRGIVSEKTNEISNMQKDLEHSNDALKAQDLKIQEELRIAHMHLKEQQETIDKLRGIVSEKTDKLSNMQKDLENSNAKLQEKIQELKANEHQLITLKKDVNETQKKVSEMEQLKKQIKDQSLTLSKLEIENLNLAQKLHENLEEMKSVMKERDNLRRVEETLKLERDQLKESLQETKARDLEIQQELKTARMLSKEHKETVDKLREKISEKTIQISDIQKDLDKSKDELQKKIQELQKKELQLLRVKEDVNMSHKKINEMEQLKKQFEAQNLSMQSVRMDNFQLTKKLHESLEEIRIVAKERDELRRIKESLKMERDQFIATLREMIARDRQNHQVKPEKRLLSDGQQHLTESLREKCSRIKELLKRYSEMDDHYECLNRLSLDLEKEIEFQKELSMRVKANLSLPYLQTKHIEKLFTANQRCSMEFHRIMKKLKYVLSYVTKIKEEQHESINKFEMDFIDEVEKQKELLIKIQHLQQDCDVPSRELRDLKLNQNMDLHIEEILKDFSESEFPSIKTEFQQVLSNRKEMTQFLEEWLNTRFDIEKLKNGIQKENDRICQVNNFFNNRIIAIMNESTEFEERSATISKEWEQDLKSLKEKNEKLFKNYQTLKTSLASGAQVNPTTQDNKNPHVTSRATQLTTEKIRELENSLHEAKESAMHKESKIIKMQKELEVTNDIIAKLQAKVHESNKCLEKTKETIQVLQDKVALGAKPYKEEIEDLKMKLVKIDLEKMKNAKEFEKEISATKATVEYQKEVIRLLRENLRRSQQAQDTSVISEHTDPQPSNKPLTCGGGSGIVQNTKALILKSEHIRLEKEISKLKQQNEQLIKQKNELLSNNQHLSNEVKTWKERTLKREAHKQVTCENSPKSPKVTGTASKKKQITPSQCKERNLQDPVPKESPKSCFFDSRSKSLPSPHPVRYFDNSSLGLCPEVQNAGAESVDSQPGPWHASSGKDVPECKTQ
SMILES,Effect [1],Effect [2]
COc1cc2c(Oc3ccc(NC(=O)C4(C(=O)Nc5ccc(F)cc5)CC4)cc3F)ccnc2cc1OCCCN1CCOCC1 [Foretinib],Inhibition,
CC(C)Oc1ccc(C(=O)N[C@H](CNC(=O)CN(C)C)Cc2ccc(-c3cn4cccc([C@H](C)O)c4n3)cc2)cc1Cl [GSK-923295],,Inhibition
